Experimental data from patent US20240401154A1, “SYNTHESIS AND PREPARATION OF ULTRA-LOW VISCOSITY AND HIGH MAGNETIC SUSCEPTIBILITY MAGNETIC IONIC LIQUIDS” (priority 2023, published 2024).

Key:
Format in all cases: physicochemical
[1] = Viscosity, Brookfield DVI cone and plate viscometer; details: 21.7° C.; neat MIL dried 48 hours under vacuum
Method: A Brookfield DVI cone and plate viscometer equipped with a CPA-51Z cone spindle was employed to obtain viscosity measurements at […] using approximately 0.5 g of each MIL after extensive drying for 48 hours under vacuum. Viscosity measurements were conducted at 21.7° C. for 15 lanthanide and transition metal MILs examined in this study.
Viscosity measurements were conducted at 21.7° C. for 15 lanthanide and transition metal MILs examined in this study.

[2] = Effective magnetic moment from magnetic susceptibility balance (MSB); details: per formula unit
Method: Magnetic properties were analyzed using a magnetic susceptibility balance (MSB, Sherwood Scientific, Cambridge, UK) and a Quantum Design Superconducting Quantum Interference Device (SQUID) magnetometer (MPMS XL-7). The magnetic properties of transition metal MILs were further studied using a SQUID magnetometer to confirm their paramagnetic nature as well as if any magnetic transition occurs in the samples.
Magnetic susceptibility (XM) was calculated through Equation (1).
Effective magnetic moment (μeff) was calculated through Equation (2). In Equation (2), T represents the temperature at which the magnetic susceptibility measurements were conducted.
15 MILs incorporating rare-earth and transition metals were examined using a magnetic susceptibility balance (MSB).

[3] = Solubility of MILs in organic solvents and water
Excerpt: The solubility of lanthanide and transition metal MILs was investigated in popular traditional organic solvents. […]
The solubility of lanthanide and transition metal MILs was investigated in popular traditional organic solvents.

[4] = Thermal stability, MIL as GC stationary phase with FID; details: exponential increase in response beyond 2,000 pA
Method: (§1) The thermal stability of MILs was measured from 40 to 350° C. at a ramp rate of 5° C. min^−1 by performing thermogravimetric analysis (TGA) using a NETZSCH STA 449 F1 Jupiter thermal analyzer (Selb, Germany). To further investigate the thermal stability of MILs using a more sensitive technique, the solvents were employed as a gas chromatographic (GC) stationary phase and subjected to an oven temperature program from 40 to 200° C. at a ramp rate of 1° C. min^−1 and decomposition/degradation products detected using an ultra-sensitive flame ionization detector (FID), with all measurements being performed on an Agilent Technologies 7890B gas chromatograph (Santa Clara, CA, USA).
To further investigate the thermal stability of MILs using a more sensitive technique, the solvents were employed as a gas chromatographic (GC) stationary phase and subjected to an oven temperature program from 40 to 200° C. at a ramp rate of 1° C. min^−1 and decomposition/degradation products detected using an ultra-sensitive flame ionization detector (FID).

[5] = Thermal stability by thermogravimetric analysis (TGA); details: TGA at 10% weight loss
Method: as §1
Volitization/degradation of MILs as a function of temperature were measured using thermogravimetric analysis. The thermal stability of magnetic ionic liquids was measured from 40 to 350° C. at a ramp rate of 5° C. min^−1 by performing thermogravimetric analysis (TGA) using a NETZSCH STA 449 F1 Jupiter thermal analyzer (Selb, Germany).
To investigate the ability of DGE-based MILs to withstand elevated temperatures without undergoing degradation/decomposition, their thermal stabilities were investigated using thermogravimetric analysis (TGA). FIG. 13 through FIG. 27 display thermograms for MILs 1 to 15. The thermogram results are summarized in greater detail in the following paragraphs.

[6] = acetone, chloroform, dichloromethane, acetonitrile, methanol, ethanol, diethyl ether, ethyl acetate, isopropanol at 20% (w/v)
[7] = hexane, heptane, benzene, toluene at 10% (w/v)
[8] = hexane, heptane, benzene, toluene at 20% (w/v)
[9] = twelve organic solvents (without acetonitrile) at 50% (w/v)

| Structure (SMILES) | Viscosity (cP) [1] [cP] | μeff, effective magnetic moment [2] [μB] | Solubility [3, 6] | Solubility [3, 7] | Solubility [3, 8] | Solubility [3, 9] | Solubility ([3]; water at 0.01% (w/v)) | Onset of MIL volatilization (° C.)^1 [4] [°C] | Onset of MIL volatilization (° C.)^2 [5] [°C] | Solubility ([3]; acetonitrile at 50% (w/v)) | Onset of MIL volatilization (° C.)^1 ([4]; listed as [Co(C8-DGE)6][Gd(hfacac)4]2) | Onset of MIL volatilization (° C.)^1 ([4]; listed as [Co(C8-DGE)6][Ho(hfacac)4]2) |
| --- | --- | --- | --- | --- | --- | --- | --- | --- | --- | --- | --- | --- |
| CCCCCCCCOC(=O)COCC(=O)OCCCCCCCC.CCCCCCCCOC(=O)COCC(=O)OCCCCCCCC.CCCCCCCCOC(=O)COCC(=O)OCCCCCCCC.CCCCCCCCOC(=O)COCC(=O)OCCCCCCCC.CCCCCCCCOC(=O)COCC(=O)OCCCCCCCC.CCCCCCCCOC(=O)COCC(=O)OCCCCCCCC.O=C(C=C([O-])C(F)(F)F)C(F)(F)F.O=C(C=C([O-])C(F)(F)F)C(F)(F)F.O=C(C=C([O-])C(F)(F)F)C(F)(F)F.O=C(C=C([O-])C(F)(F)F)C(F)(F)F.O=C(C=C([O-])C(F)(F)F)C(F)(F)F.O=C(C=C([O-])C(F)(F)F)C(F)(F)F.[Ni+2].[Ni+2].[Ni+2] [compound 5] | 119.1 | 5.33 | S^b (soluble in acetone, chloroform, dichloromethane, acetonitrile, methanol, ethanol, diethyl ether, ethyl acetate, and isopropanol at 20% (w/v).) | S^a (soluble in hexane, heptane, benzene, and toluene at 10% (w/v).) | S^c (soluble in hexane, heptane, benzene, and toluene at 20% (w/v).) | S^d (soluble in acetone, chloroform, dichloromethane, methanol, ethanol, diethyl ether, ethyl acetate, isopropanol hexane, heptane, benzene, and toluene at 50% (w/v).) | S^f (insoluble in water at 0.01% (w/v).) | 190 | 264.4 |  |  |  |
| O=C(C=C([O-])C(F)(F)F)C(F)(F)F.O=C(C=C([O-])C(F)(F)F)C(F)(F)F.O=C(C=C([O-])C(F)(F)F)C(F)(F)F.O=C(C=C([O-])C(F)(F)F)C(F)(F)F.O=C(C=C([O-])C(F)(F)F)C(F)(F)F.O=C(C=C([O-])C(F)(F)F)C(F)(F)F.O=C(COCC(=O)OC1CCCCC1)OC1CCCCC1.O=C(COCC(=O)OC1CCCCC1)OC1CCCCC1.O=C(COCC(=O)OC1CCCCC1)OC1CCCCC1.O=C(COCC(=O)OC1CCCCC1)OC1CCCCC1.O=C(COCC(=O)OC1CCCCC1)OC1CCCCC1.O=C(COCC(=O)OC1CCCCC1)OC1CCCCC1.[Mn+2].[Mn+2].[Mn+2] [compound 9] | 478.9 | 9.96 | S^b (soluble in acetone, chloroform, dichloromethane, acetonitrile, methanol, ethanol, diethyl ether, ethyl acetate, and isopropanol at 20% (w/v).) | S^a (soluble in hexane, heptane, benzene, and toluene at 10% (w/v).) | S^c (soluble in hexane, heptane, benzene, and toluene at 20% (w/v).) | S^d (soluble in acetone, chloroform, dichloromethane, methanol, ethanol, diethyl ether, ethyl acetate, isopropanol hexane, heptane, benzene, and toluene at 50% (w/v).) | S^f (insoluble in water at 0.01% (w/v).) | 159 | 176.9 | S^e (insoluble in acetonitrile at 50% (w/v).) |  |  |
| CCCCCCOC(=O)COCC(=O)OCCCCCC.CCCCCCOC(=O)COCC(=O)OCCCCCC.CCCCCCOC(=O)COCC(=O)OCCCCCC.CCCCCCOC(=O)COCC(=O)OCCCCCC.CCCCCCOC(=O)COCC(=O)OCCCCCC.CCCCCCOC(=O)COCC(=O)OCCCCCC.O=C(C=C([O-])C(F)(F)F)C(F)(F)F.O=C(C=C([O-])C(F)(F)F)C(F)(F)F.O=C(C=C([O-])C(F)(F)F)C(F)(F)F.O=C(C=C([O-])C(F)(F)F)C(F)(F)F.O=C(C=C([O-])C(F)(F)F)C(F)(F)F.O=C(C=C([O-])C(F)(F)F)C(F)(F)F.[Ni+2].[Ni+2].[Ni+2] [compound 2] | 248.6 | 5.48 | S^b (soluble in acetone, chloroform, dichloromethane, acetonitrile, methanol, ethanol, diethyl ether, ethyl acetate, and isopropanol at 20% (w/v).) | S^a (soluble in hexane, heptane, benzene, and toluene at 10% (w/v).) | S^c (soluble in hexane, heptane, benzene, and toluene at 20% (w/v).) | S^d (soluble in acetone, chloroform, dichloromethane, methanol, ethanol, diethyl ether, ethyl acetate, isopropanol hexane, heptane, benzene, and toluene at 50% (w/v).) | S^f (insoluble in water at 0.01% (w/v).) | 166 | 257.0 | S^e (insoluble in acetonitrile at 50% (w/v).) |  |  |
| CCCCCCOC(=O)COCC(=O)OCCCCCC.CCCCCCOC(=O)COCC(=O)OCCCCCC.CCCCCCOC(=O)COCC(=O)OCCCCCC.CCCCCCOC(=O)COCC(=O)OCCCCCC.CCCCCCOC(=O)COCC(=O)OCCCCCC.CCCCCCOC(=O)COCC(=O)OCCCCCC.O=C(C=C([O-])C(F)(F)F)C(F)(F)F.O=C(C=C([O-])C(F)(F)F)C(F)(F)F.O=C(C=C([O-])C(F)(F)F)C(F)(F)F.O=C(C=C([O-])C(F)(F)F)C(F)(F)F.O=C(C=C([O-])C(F)(F)F)C(F)(F)F.O=C(C=C([O-])C(F)(F)F)C(F)(F)F.[Co+2].[Co+2].[Co+2] [MIL 1] | 175.0 |  |  |  |  |  |  |  |  |  |  |  |
| O=C(C=C([O-])C(F)(F)F)C(F)(F)F.O=C(C=C([O-])C(F)(F)F)C(F)(F)F.O=C(C=C([O-])C(F)(F)F)C(F)(F)F.O=C(C=C([O-])C(F)(F)F)C(F)(F)F.O=C(C=C([O-])C(F)(F)F)C(F)(F)F.O=C(C=C([O-])C(F)(F)F)C(F)(F)F.O=C(COCC(=O)OC1CCCCC1)OC1CCCCC1.O=C(COCC(=O)OC1CCCCC1)OC1CCCCC1.O=C(COCC(=O)OC1CCCCC1)OC1CCCCC1.O=C(COCC(=O)OC1CCCCC1)OC1CCCCC1.O=C(COCC(=O)OC1CCCCC1)OC1CCCCC1.O=C(COCC(=O)OC1CCCCC1)OC1CCCCC1.[Co+2].[Co+2].[Co+2] [compound 7] | 639.4 | 8.11 | S^b (soluble in acetone, chloroform, dichloromethane, acetonitrile, methanol, ethanol, diethyl ether, ethyl acetate, and isopropanol at 20% (w/v).) | S^a (soluble in hexane, heptane, benzene, and toluene at 10% (w/v).) | S^c (soluble in hexane, heptane, benzene, and toluene at 20% (w/v).) | S^d (soluble in acetone, chloroform, dichloromethane, methanol, ethanol, diethyl ether, ethyl acetate, isopropanol hexane, heptane, benzene, and toluene at 50% (w/v).) | S^f (insoluble in water at 0.01% (w/v).) | 133 | 200.1 | S^e (insoluble in acetonitrile at 50% (w/v).) |  |  |
| CCCCCCCCOC(=O)COCC(=O)OCCCCCCCC.CCCCCCCCOC(=O)COCC(=O)OCCCCCCCC.CCCCCCCCOC(=O)COCC(=O)OCCCCCCCC.CCCCCCCCOC(=O)COCC(=O)OCCCCCCCC.CCCCCCCCOC(=O)COCC(=O)OCCCCCCCC.CCCCCCCCOC(=O)COCC(=O)OCCCCCCCC.O=C(C=C([O-])C(F)(F)F)C(F)(F)F.O=C(C=C([O-])C(F)(F)F)C(F)(F)F.O=C(C=C([O-])C(F)(F)F)C(F)(F)F.O=C(C=C([O-])C(F)(F)F)C(F)(F)F.O=C(C=C([O-])C(F)(F)F)C(F)(F)F.O=C(C=C([O-])C(F)(F)F)C(F)(F)F.O=C(C=C([O-])C(F)(F)F)C(F)(F)F.O=C(C=C([O-])C(F)(F)F)C(F)(F)F.[Co+2].[Gd+3].[Gd+3] [MIL 14] |  |  |  |  |  |  |  |  |  |  | approximately 120 °C |  |
| CCCCCCCCOC(=O)COCC(=O)OCCCCCCCC.CCCCCCCCOC(=O)COCC(=O)OCCCCCCCC.CCCCCCCCOC(=O)COCC(=O)OCCCCCCCC.CCCCCCCCOC(=O)COCC(=O)OCCCCCCCC.CCCCCCCCOC(=O)COCC(=O)OCCCCCCCC.CCCCCCCCOC(=O)COCC(=O)OCCCCCCCC.O=C(C=C([O-])C(F)(F)F)C(F)(F)F.O=C(C=C([O-])C(F)(F)F)C(F)(F)F.O=C(C=C([O-])C(F)(F)F)C(F)(F)F.O=C(C=C([O-])C(F)(F)F)C(F)(F)F.O=C(C=C([O-])C(F)(F)F)C(F)(F)F.O=C(C=C([O-])C(F)(F)F)C(F)(F)F.O=C(C=C([O-])C(F)(F)F)C(F)(F)F.O=C(C=C([O-])C(F)(F)F)C(F)(F)F.[Co+2].[Ho+3].[Ho+3] [MIL 15] |  |  |  |  |  |  |  |  |  |  |  | approximately 120 °C |
